The source of these data is patent publication US20060009428A1, “Cyclic progestin regimens and kits” (Wyeth, priority 2004, published 2006).

Values joined by “and” are separate entries in the source; they are usually repeats but may differ in a detail not shown here. Identical values can stand only once.

What all share (format): in vivo
Assay [1] deals with T1, progesterone receptor (Rattus norvegicus, UniProt Q63449).
T1 construct: the uterine decidualization assay in adult ovariectomized rats; from tissue; host or cells: uterus of live ovariectomized Sprague-Dawley rats (in vivo)
T1 sequence (Q63449 1-923): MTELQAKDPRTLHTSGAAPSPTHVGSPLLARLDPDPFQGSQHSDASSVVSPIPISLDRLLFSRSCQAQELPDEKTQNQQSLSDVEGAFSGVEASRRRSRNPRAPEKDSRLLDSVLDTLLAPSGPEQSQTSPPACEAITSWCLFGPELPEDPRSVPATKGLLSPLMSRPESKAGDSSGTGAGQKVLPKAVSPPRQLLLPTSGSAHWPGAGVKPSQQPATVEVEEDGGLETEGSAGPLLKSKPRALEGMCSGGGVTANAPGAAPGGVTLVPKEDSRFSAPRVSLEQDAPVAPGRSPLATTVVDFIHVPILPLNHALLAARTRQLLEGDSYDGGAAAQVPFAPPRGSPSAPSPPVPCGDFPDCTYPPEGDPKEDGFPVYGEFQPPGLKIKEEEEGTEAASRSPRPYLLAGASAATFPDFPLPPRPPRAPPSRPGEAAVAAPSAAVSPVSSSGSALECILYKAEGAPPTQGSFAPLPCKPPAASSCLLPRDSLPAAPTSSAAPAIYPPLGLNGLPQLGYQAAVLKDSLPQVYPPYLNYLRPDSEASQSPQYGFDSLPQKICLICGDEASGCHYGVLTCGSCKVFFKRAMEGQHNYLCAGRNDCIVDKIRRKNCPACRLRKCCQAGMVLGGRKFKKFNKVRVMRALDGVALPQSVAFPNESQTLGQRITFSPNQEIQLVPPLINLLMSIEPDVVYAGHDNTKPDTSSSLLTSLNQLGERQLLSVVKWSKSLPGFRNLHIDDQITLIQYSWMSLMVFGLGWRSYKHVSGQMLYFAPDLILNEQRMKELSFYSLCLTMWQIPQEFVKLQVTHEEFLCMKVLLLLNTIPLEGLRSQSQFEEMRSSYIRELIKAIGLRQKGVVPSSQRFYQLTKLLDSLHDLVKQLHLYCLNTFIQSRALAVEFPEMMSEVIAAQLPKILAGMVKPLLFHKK
The assay can be described thus: Rat uterine decidualization assay in adult ovariectomized rats. Particulars: for ED50: rat, read-out: Rat Decidual Assay ED50. The procedure: The second rat model to determine progestational activity is the uterine decidualization assay in adult ovariectomized rats.
Briefly, mature female Sprague-Dawley rats (˜220 g) were ovariectomized at least 10 days prior to treatment to reduce circulating sex steroids. […] Approximately 24 hours after the third daily treatment, decidualization was induced in onel uterine horn of each anesthetized rat by scratching the antimesometrial luminal epithelium with a blunt 21-gauge needle. The contralateral horn was not scratched and served as a non-stimulated control. Animals were euthanized by CO2 asphyxiation 24 hoursr following the final treatment. The uteri were removed, and trimmed of fat, and the decidualized (D) and control (C) horns were weighed separately. The decidual response is expressed as D/C.

Assay [2] deals with estrogen-induced C3 expression in the uterine epithelium. Kind of assay: Adult ovariectomized rat uterine C3 model. Particulars: po, once daily for 2 days, with EE 0.08 mg/kg on day 2; for ED50: Rattus norvegicus, 48 h. The procedure:
The third model for PR agonist activity was the adult ovariectomized rat uterine C3 model. This assay evaluates the ability of a progestin to block estrogen-induced C3 expression in the uterine epithelium.
Ovariectomized female, 60 day-old Sprague-Dawley rats were obtained from Harlan (Indianapolis, Ind.). Ovariectomies were performed by the supplier a minimum of 8 days prior tobefore treatment. The rats were randomized and placed in groups of 6. The animals were treated once daily for (2) two days orally by gavage (p.o.) in a volume of 0.5 mL. On the second day of treatment, the animals were also treated with EE (0.08 mg/kg body weight (BW)) orally by gavage. Approximately 24 hours after the final treatment, the animals were euthanized by CO2 asphyxiation. The uteri were then removed, stripped of remaining fat and mesentery, weighed, and snap-frozen on dry ice. Total RNA was isolated from the uteri using the Trizol Reagent (GibcoBRL) as described by the manufacturer. Real-time reverse transcription polymerase chain reaction (RT-PCR) as previously reported [Sampath D, et al., “Aberrant expression of Cyr61, a member of the CCN (CTGF/Cyr61/Cef10/NOVH) family, and dysregulation by 17b-estradiol and basic fibroblast growth factor in human uterine leiomyomas” J Clin Endocrinol Metab. 2001; 86:1707-1715] was used to quantitate complement C3 expression. Briefly, RNA samples were DNAse-I treated using a DNA-free kit (Ambion). A total of 50 ng of RNA was analyzed in triplicate using C3 specific primer pair (5′primer […] [SEQ ID NO: 1], 3]primer […] [SEQ ID NO: 2]) and customized probe (6FAM-[…]-TAMRA [SEQ ID NO: 3]). C3 messenger RNA (mRNA) levels were normalized to 18s 18S ribosomal RNA contained within each sample reaction using primers and probe supplied by PE Applied Biosystems.

The test system of assay [3] is ovulation in adult female rats. The assay can be described thus: Rat ovulation inhibition assay. Particulars: po, once daily for 4 days, Sprague-Dawley rats. On the procedure: The ovulation inhibition assay measures a compound's ability to inhibit ovulation in adult female rats. This activity is essential for contraceptive efficacy.
Random cycling mature female Sprague-Dawley rats (˜200 g) were obtained from Charles River Laboratory (Boston, Mass.). Rats were synchronized for estrus with 2 μg of LHRH (in phosphate buffered saline containing 0.1% bovine serum albumin) administered subcutaneously (sc) per rat at 0900 h and again at 1600 h. Animals were allowed to rest for 8 days before the administration of test compounds. Animals were then grouped, with 7 to 9 rats per treatment group. The morning of the ninth day following LHRH treatment, the rats were treated with test compounds once daily, by gavage. This continued for 4 consecutive days. The animals were euthanized the morning following the last treatment. Oviducts were removed, placed between 2 glass slides, and viewed through a dissecting microscope to count ova. The number of animals presenting ova in the oviduct from each treatment group and the number of ova in the oviduct of each animal were recorded.

Assay [4] deals with rabbit endometrial transformation. Kind of assay: Rabbit endometrial transformation (Clauberg) assay. Particulars: for ED50: Oryctolagus cuniculus, 120 h, read-out: Rabbit Clauberg Assay estimated ED50 (AED50). The procedure:
In addition to the rat progestational models described above, NSP-989 was also evaluated in the Clauberg model, a classic progestational assay in the rabbit endometrial transformation model [McPhail MK, “The assay of progestin.” J Physiol. 1934; 83:145-1567]. Briefly, immature female New Zealand White rabbits (˜1 kg body weight) were injected subcutaneously with 5 μg 17β-estradiol (E2)/rabbit/day for six consecutive days. Beginning 24 hours after the final E2 injection, vehicle alone or test compounds were given orally for (5) five consecutive days. Progestational activity was determined by increases in uterine weight and endometrial glandular arborization (McPhail Index).

Where [5] appears, read: po, once daily for 7 days, ovariectomized rats.
[6] abbreviates: po, 5 days, estradiol-primed immature rabbits, limited dose response studies.

The ED50 is the midpoint of the dose-response relation. Turning to `CC(=O)O[C@]1(C(C)=O)CC[C@H]2[C@@H]3C[C@H](C)C4=CC(=O)CC[C@]4(C)[C@H]3CC[C@@]21C` [MPA, medroxyprogesterone acetate], the ED50 in assay [1] (setting [5]) is 0.4 mg/kg; in assay [2], 0.03 mg/kg; in assay [4] (setting [6]) it was 0.03 mg/kg. For the same compound, the “Rat Ovulation Inhibition Assay ED100” value in assay [3] was 1 mg/kg and 1.0 mg/kg.
Regarding `C[C@H](O)C(=O)[C@@]1(C)CC[C@H]2[C@@H]3CCC4=CC(=O)CCC4=C3CC[C@@]21C` [TMG, trimegestone], in assay [1] (setting [5]), the “Rat Decidual Assay ED50” value came to 1.0 mg/kg. Further, in assay [2], the “Rat C3 Assay ED50” value is 0.005 mg/kg. Moreover, in assay [3], the “Rat Ovulation Inhibition Assay ED100” value is 1 mg/kg and 1.0 mg/kg. Further, the “Rabbit Clauberg Assay estimated ED50 (AED50)” value in assay [4] (setting [6]) is 0.001 mg/kg.
With `Cn1c(C#N)ccc1-c1ccc2c(c1)C(C)(C)OC(=S)N2` [NSP-989, 5-(4,4-Dimethyl-2-thioxo-1,4-dihydro-2H-benzo[d] [1,3]oxazin-6-yl)-1-methyl-1H-pyrrole-2-carbonitrile], the ED50 in assay [1] (setting [5]) was 0.01 mg/kg; in assay [2], 0.0005 mg/kg; in assay [4] (setting [6]), 0.001 mg/kg. Moreover, the “Potency in decidualization relative to MPA (fold more potent)” value in assay [1] (versus MPA) is reported as “approximately 40 fold”. In addition, the “Potency in decidualization relative to TMG (fold more potent)” value in assay [1] (versus TMG) was around 100 fold. Moreover, the “Rat Ovulation Inhibition Assay ED100” value in assay [3] is recorded as 0.03 mg/kg. In addition, in assay [4] (versus MPA), the “Potency in Clauberg assay relative to MPA (fold more potent)” value is reported as “about 30 fold”.
